According to US20260183297A1, “SELECTION OF PATIENTS FOR THE TREATMENT OF FADS1-MEDIATED DISEASES OR DISORDERS USING FADS-1 INHIBITORS” (AMGEN INC., priority 2022, published 2026):
Marks after values point to notes of the source that are not given here.

Legend:
[1] = Indirect calorimetry studies (CLAMS); assay type: in vivo, mouse; details: DIO mice, 30 mg/kg
Description: Twenty-four Fads1 KO and 24 WT mice entered the Comprehensive Laboratory Animal Monitoring System (CLAMS; Columbus Instruments, Columbus, Ohio—Oxymax Model 2018, 0233-004M, Oxymax for Windows v5.53 software, Hardware configuration 190395) before starting the HFD feeding phase, and again at 6 and 12 weeks on HFD. […] Body weight was measured daily, and food consumption was measured biweekly. Animals reentered the CLAMS on days 17-21 and on days 38-42. The volume of oxygen consumption (VO2), carbon dioxide production (VCO2), RER, and energy expenditure (HEAT) were measured during that period.

[2] = Liver histology assessment (H&E, Oil-red-O); assay type: in vivo, mouse; details: WT DIO mice, 10 mg/kg, 24 days, compared to WT vehicle
mouse FADS1 = target: T1, mouse FADS1 (Mus musculus, UniProt Q920L1); assay: Mouse FADS1 cell-based assay; details: in vitro; read-out: half-maximal inhibitory concentration (IC50) against mouse FADS1
T1 sequence (Q920L1 1-447): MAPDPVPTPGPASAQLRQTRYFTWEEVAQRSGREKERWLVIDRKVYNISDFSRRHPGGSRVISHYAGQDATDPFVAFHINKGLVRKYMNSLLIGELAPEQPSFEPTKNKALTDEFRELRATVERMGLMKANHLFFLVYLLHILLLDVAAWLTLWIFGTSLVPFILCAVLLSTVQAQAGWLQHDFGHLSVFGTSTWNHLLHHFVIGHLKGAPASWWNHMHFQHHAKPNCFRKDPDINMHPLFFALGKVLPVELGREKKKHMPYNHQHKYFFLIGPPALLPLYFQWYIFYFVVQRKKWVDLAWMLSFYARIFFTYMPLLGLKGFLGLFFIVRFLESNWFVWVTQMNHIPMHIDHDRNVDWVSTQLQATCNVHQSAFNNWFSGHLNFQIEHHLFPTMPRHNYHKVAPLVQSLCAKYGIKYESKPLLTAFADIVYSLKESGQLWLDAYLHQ
Description: HEK 293 cells in Dulbecco's Modified Eagle's medium (DMEM), 10% fetal bovine serum (FBS), 1× penicillin-streptomycin-glutamine (PSG) were mixed with FADS1 BacMam or FADS2 BacMam reagents at multiplicity of infection (MOI) ratio of 25 and plated in a in 96-well poly-D-lysine-coated plate. Plates were incubated in a 37° C., 5% CO2 for 24 hours. Cells were washed with DPBS and cells were incubated with […] of compound dilution in DPBS at 5% CO2, 37° C. for 20 minutes. Ten L of the substrate, ^13C5-DGLA (FADS1), or 13C-LA (FADS2) diluted in DPBS were added to the cells and incubated at 5% CO2, 37° C. for 30 minutes (FADS1) or 45 minutes (FADS2). Cells were then washed with DPBS and 50 μL of 2N NaOH were added to each well and incubated in a 65° C. oven for 1 hour for the saponification reaction. After cooling to room temperature, 22 μl of formic acid was added followed by the addition of 113 μl of acetonitrile with 1.5 μM ALA-d14 as the internal standard. Samples were then subjected to LC-MS/MS detection for the following analytes for the FADS1 reaction: ^13C5-DGLA and ^13C5-AA or the following analytes for the FADS2 reaction: ^13C18-LA, ^13C18-GLA, ^13C18-DGLA and ^13C18-AA. […]
The analyte peak areas were quantified by using the Analyst software (SCIEX, Framingham, MA). The percent of substrate to product conversion relative to untreated control were calculated (percent of control [POC]). […]

[3] = Fatty acid concentration and composition of plasma lipid subfractions (GC) of Compound A-treated DIO mice; assay type: in vivo; details: DIO mouse plasma, 30 mg/kg, mean

COc1ccn2c(=O)c(-c3cnn(CC(F)(F)C(F)(F)F)c3)c(C(F)(F)F)nc2c1 [Compound A, 8-methoxy-3-(1-(2,2,3,3,3-pentafluoropropyl)-1H-pyrazol-4-yl)-2-(trifluoromethyl)-4H-pyrido[1,2-a]pyrimidin-4-one]
body weight ([1]; 42 days, vs vehicle): significantly reduced body weight | carbon dioxide production ([1]; 42 days, vs vehicle): no differences | energy expenditure ([1]; 42 days, vs vehicle): no differences | oxygen consumption ([1]; 42 days, vs vehicle): no differences | light cycle RER ([1]; at 17-23 days and 38-42 days): decreased | activity in the dark cycle ([1]; vs vehicle-treated mice): trended to be more active | liver lipid content (Oil-red-O staining) [2]: reduced lipid content | IC50 (mouse FADS1): 4 nM | C20:4n6 concentration, Cholesterol ester ([3]; Cholesterol ester): 72.4*** μg mL^−1 | C16:1n7t concentration, Phospholipids ([3]; Phospholipids): 1.2 µg/mL | C16:1n7t concentration, Total ([3]; Total lipids): 3.0 µg/mL | C20:2n6 concentration, Total ([3]; Total lipids): 9.9 µg/mL | C24:0 concentration, Total ([3]; Total lipids): 1.9 µg/mL
